Test results reported in ChEMBL document CHEMBL6087461, “Cell-Permeable Peptide Inhibitors of the p53-hDM2 Interaction via Foldamer Helix Mimicry and Bis-Thioether Stapling” (J Med Chem, 2025).
Active and inactive are the calls of the source. The rule behind the calls is not given here. Starred links: 1 amine or outer side, 2 acyl side, 3 side chain; linkers in the order of their positions; H or OH if unused. Positions of bridges follow the written chain, without caps; N, C: chain ends. Residues, ends and D or L forms follow the SMILES beside them. *: point of attachment. X2 = CC(C)[C@@H](CNC(N)=O)NC(=O)NC[C@H](C)NC(=O)NC[C@H](CSCC(=O)NCCNC(=O)C[*:1])N[*:2]; X1 = CC(C)[C@@H](CNC(N)=O)NC(=O)NC[C@H](C)NC(=O)NC[C@H](CSCCCCCC[*:1])N[*:2]; X6 = CC(C)[C@@H](CNC(N)=O)NC(=O)NC[C@H](CSCCCCCC[*:1])NC(=O)NC[C@H](C)N[*:2]; X5 = CC(C)[C@@H](CNC(N)=O)NC(=O)NC[C@H](C)NC(=O)NC[C@H](CSCCC[*:1])N[*:2]; X3 = CC(C)[C@@H](CNC(N)=O)NC(=O)NC[C@H](C)NC(=O)NC[C@H](C)N*; NH(CH2CH2O)2(CH2)6Cl = ClCCCCCCOCCOCCN*; Suc = O=C(CCC(=O)[*:2])[*:1]; X4 = C(C[*:1])C[*:2]

What was measured:
[1] = tested on: HCT-116; assay: Effect on increase in […] RNA level in human HCT-116 cells at 10 uM measured after 6 hrs by RT-qPCR analysis; assay type: functional, cell-based
[2] = tested on: HCT-116; assay: Effect on increase in p21 RNA level in human HCT-116 cells at 10 uM measured after 6 hrs by RT-qPCR analysis; assay type: functional, cell-based
[3] = biological target: Tumour suppressor protein p53/Mdm4 (Homo sapiens, UniProt O15151); assay: PROTAC activity at human DMX/p53 extracted from Escherichia coli interaction by measuring inhibition of interaction by time-resolved fluorescence energy transfer (TRFRET) detection method; assay type: protein assay
[4] = PROTAC activity at human DM2/p53 extracted from Escherichia coli interaction by measuring inhibition of interaction by time-resolved fluorescence energy transfer (TRFRET) detection method
[5] = biological target: Tumour suppressor protein p53/Mdm4 (Homo sapiens) (UniProt P04637+O15151); assay: PROTAC activity at human DMX/p53 extracted from Escherichia coli interaction at 100 nM by measuring inhibition of interaction by time-resolved fluorescence energy transfer (TRFRET) detection method relative to control; assay type: protein assay
[6] = biological target: Tumour suppressor p53/oncoprotein Mdm2 (Homo sapiens) (UniProt P04637+Q00987); assay: PROTAC activity at human MDM2/p53 extracted from Escherichia coli interaction by measuring inhibition of interaction at 100 nM by time-resolved fluorescence energy transfer (TRFRET) detection method relative to control; assay type: protein assay
[7] = tested on: SW480; assay: Cytotoxicity against human SW480 cells expressing […] assessed as cell viability at 0.1 to 40 uM measured after 72 hrs incubation by MTS cell viability assay; assay type: functional, cell-based; settings: dose 0.1-40 µM
[8] = tested on: MCF7; assay: Cytotoxicity against human MCF7 cells expressing wild type p53 and overexpressing human DMX assessed as cell viability measured after 72 hrs incubation by MTS cell viability assay; assay type: functional, cell-based
[9] = tested on: HCT-116; assay: Cytotoxicity against human HCT116 cells expressing wild type p53 and overexpressing human DM2 assessed as cell viability measured after 72 hrs incubation by MTS cell viability assay; assay type: functional, cell-based
[10] = tested on: HCT-116; assay: Cytotoxicity against human HCT-116 cells assessed as cell viability at 100 uM by MTS cell viability assay; assay type: functional, cell-based
[11] = Permeability in human HeLa cells transfected with Halo-GFP-Mito assessed as accumulation in cytosol measured after 4 hrs incubation by chloroalkane penetration assay; assay type: ADME, subcellular

Chain of Tumour suppressor protein p53/Mdm4 (P04637 whole entry): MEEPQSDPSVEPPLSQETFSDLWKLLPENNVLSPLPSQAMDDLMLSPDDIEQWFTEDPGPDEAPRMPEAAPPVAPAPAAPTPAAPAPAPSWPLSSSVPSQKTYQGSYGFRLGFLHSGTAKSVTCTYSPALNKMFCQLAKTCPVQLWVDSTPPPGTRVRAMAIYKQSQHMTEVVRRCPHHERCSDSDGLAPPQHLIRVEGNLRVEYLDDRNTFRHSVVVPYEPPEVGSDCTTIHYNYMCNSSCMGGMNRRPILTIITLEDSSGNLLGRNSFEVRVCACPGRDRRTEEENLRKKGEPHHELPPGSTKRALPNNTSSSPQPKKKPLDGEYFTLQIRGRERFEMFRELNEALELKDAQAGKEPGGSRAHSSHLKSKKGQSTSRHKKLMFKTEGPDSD
Chain of Tumour suppressor protein p53/Mdm4 (O15151 whole entry): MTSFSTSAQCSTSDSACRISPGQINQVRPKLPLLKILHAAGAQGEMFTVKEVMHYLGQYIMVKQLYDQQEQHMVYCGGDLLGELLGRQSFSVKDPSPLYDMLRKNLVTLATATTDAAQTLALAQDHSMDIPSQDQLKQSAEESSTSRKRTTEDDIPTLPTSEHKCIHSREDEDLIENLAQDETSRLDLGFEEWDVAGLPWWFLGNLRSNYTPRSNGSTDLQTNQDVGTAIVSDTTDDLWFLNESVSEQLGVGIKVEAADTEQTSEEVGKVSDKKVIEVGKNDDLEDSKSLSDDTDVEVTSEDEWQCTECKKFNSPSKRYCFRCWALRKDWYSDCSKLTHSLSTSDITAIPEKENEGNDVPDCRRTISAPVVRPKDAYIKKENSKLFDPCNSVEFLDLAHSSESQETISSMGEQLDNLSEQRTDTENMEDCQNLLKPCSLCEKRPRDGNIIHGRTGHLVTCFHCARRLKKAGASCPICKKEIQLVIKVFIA
Chain of Tumour suppressor p53/oncoprotein Mdm2 (Homo sapiens) (P04637 whole entry, looked up): as the sequence (P04637 whole entry) above
Chain of Tumour suppressor p53/oncoprotein Mdm2 (Homo sapiens) (Q00987 whole entry, looked up): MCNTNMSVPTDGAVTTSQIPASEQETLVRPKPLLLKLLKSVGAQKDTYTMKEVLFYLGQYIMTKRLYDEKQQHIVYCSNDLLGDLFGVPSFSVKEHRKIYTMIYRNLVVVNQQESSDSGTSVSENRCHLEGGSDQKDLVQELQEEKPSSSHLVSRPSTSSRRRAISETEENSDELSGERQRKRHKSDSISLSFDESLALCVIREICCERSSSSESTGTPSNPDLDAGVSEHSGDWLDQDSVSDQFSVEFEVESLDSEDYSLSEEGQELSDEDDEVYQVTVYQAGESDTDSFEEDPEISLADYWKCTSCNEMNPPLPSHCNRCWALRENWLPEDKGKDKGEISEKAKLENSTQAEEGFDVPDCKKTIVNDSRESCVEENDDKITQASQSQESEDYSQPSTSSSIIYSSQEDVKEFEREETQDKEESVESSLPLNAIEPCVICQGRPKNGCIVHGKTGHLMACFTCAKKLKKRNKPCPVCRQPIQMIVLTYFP
Chain of Tumour suppressor protein p53/Mdm4 (Homo sapiens) (O15151 whole entry, looked up): as the sequence (O15151 whole entry) above
Chain of Tumour suppressor protein p53/Mdm4 (Homo sapiens) (P04637 whole entry, looked up): as the sequence (P04637 whole entry) above

Structure (SMILES) | IC50 [3] | IC50 [4] | inhibition [5] | inhibition [6] | further results
COc1ccc(C2=N[C@@H](c3ccc(Cl)cc3)[C@@H](c3ccc(Cl)cc3)N2C(=O)N2CCNC(=O)C2)c(OC(C)C)c1 |  |  |  |  | Activity [1]: Active; Activity [2]: Active
CC(=O)N[C@@H](CCCCN)C(=O)N[C@H](C(=O)N[C@@H](Cc1ccccc1)C(=O)N[C@@H](C)C(=O)N[C@@H](CCC(=O)O)C(=O)N[C@@H](Cc1ccc(O)cc1)C(=O)N[C@@H](Cc1c[nH]c2ccccc12)C(=O)N[C@@H](C)CNC(=O)N[C@@H](C)CNC(=O)N[C@H](CNC(N)=O)C(C)C)[C@@H](C)O (Ac-KTFAEYW-X3) | 23.8 µM | 0.0057 µM |  |  | 
CC(C)[C@@H](CNC(N)=O)NC(=O)NC[C@H](C)NC(=O)NC[C@H](C)NC(=O)[C@H](Cc1c[nH]c2ccccc12)NC(=O)[C@H](Cc1ccc(O)cc1)NC(=O)[C@@H]1CSCCCSC[C@H](N)C(=O)N[C@@H](CO)C(=O)N[C@@H](Cc2ccccc2)C(=O)N[C@@H](C)C(=O)N1 (H-CSFACYW-X3; linker 1-5 via X4) | 80 µM | 0.0234 µM | 68% | 98% | 
CC(C)[C@@H](CNC(N)=O)NC(=O)NC[C@H](C)NC(=O)NC[C@@H]1CSCCCCCCSC[C@H](NC(=O)[C@H](Cc2ccccc2)NC(=O)[C@H](CO)NC(=O)[C@H](CCCCN)NC(=O)[C@@H](N)CCCCN)C(=O)N[C@@H](CCC(=O)O)C(=O)N[C@@H](Cc2ccc(O)cc2)C(=O)N[C@@H](Cc2c[nH]c3ccccc23)C(=O)N1 (H-KKSFCEYW; linker 5-C via X1) | 45.4 µM | 0.00895 µM |  | inactive | Activity [5]: inactive; Activity [7]: Active
CC(C)[C@@H](CNC(N)=O)NC(=O)NC[C@H](C)NC(=O)NC[C@@H]1CSCCCCCCSC[C@H](NC(=O)[C@H](Cc2ccccc2)NC(=O)[C@H](CO)NC(=O)[C@@H](NC(=O)[C@H](CCCCN)NC(=O)[C@@H](N)CCCCN)[C@@H](C)O)C(=O)N[C@@H](CCC(=O)O)C(=O)N[C@@H](Cc2ccc(O)cc2)C(=O)N[C@@H](Cc2c[nH]c3ccccc23)C(=O)N1 (H-KKTSFCEYW; linker 6-C via X1) | 62.7 µM | 0.0102 µM |  | inactive | Activity [5]: inactive; Activity [7]: Active
CC(C)[C@@H](CNC(N)=O)NC(=O)NC[C@H](C)NC(=O)NC[C@@H]1CSCC(=O)NCCNC(=O)CSC[C@H](NC(=O)[C@H](Cc2ccccc2)NC(=O)[C@H](CO)NC(=O)[C@H](CCCCN)NC(=O)[C@H](CCCNC(=N)N)NC(=O)[C@H](CCCNC(=N)N)NC(=O)[C@@H](N)CCCNC(=N)N)C(=O)N[C@@H](CCC(=O)O)C(=O)N[C@@H](Cc2ccc(O)cc2)C(=O)N[C@@H](Cc2c[nH]c3ccccc23)C(=O)N1 (H-RRRKSFCEYW; linker 7-C via X2) | 10.3 µM | 0.0036 µM | 98% | 99% | Activity [8]: inactive; Activity [9]: Not active; Compound Was Poorly Active Even At High Concentration
CC(C)[C@@H](CNC(N)=O)NC(=O)NC[C@H](C)NC(=O)NC[C@H](C)NC(=O)[C@H](Cc1c[nH]c2ccccc12)NC(=O)[C@H](Cc1ccc(O)cc1)NC(=O)[C@@H]1CSCCCSC[C@H](NC(=O)[C@@H](N)[C@@H](C)O)C(=O)N[C@@H](Cc2ccccc2)C(=O)N[C@@H](C)C(=O)N1 (H-TCFACYW-X3; linker 2-5 via X4) | 763 µM | 0.109 µM | 20% | 41% | 
CC(C)[C@@H](CNC(N)=O)NC(=O)NC[C@@H]1CSCCCCCCSC[C@H](NC(=O)[C@H](C)NC(=O)[C@H](Cc2ccccc2)NC(=O)[C@H](CO)NC(=O)[C@@H](N)[C@@H](C)O)C(=O)N[C@@H](Cc2ccc(O)cc2)C(=O)N[C@@H](Cc2c[nH]c3ccccc23)C(=O)N[C@@H](C)CNC(=O)N1 (H-TSFACYW; linker 5-C via X6) | 196 µM | 0.0331 µM | 11% | 86% | 
CC(C)[C@@H](CNC(N)=O)NC(=O)NC[C@H](C)NC(=O)NC[C@H](C)NC(=O)[C@H](Cc1c[nH]c2ccccc12)NC(=O)[C@H](Cc1ccc(O)cc1)NC(=O)[C@H](CCC(=O)O)NC(=O)[C@H](C)NC(=O)[C@H](Cc1ccccc1)NC(=O)[C@H](CO)NC(=O)[C@@H](N)[C@@H](C)O (H-TSFAEYW-X3) | 82 µM | 0.0238 µM | 61% | 97% | 
CC(C)[C@@H](CNC(N)=O)NC(=O)NC[C@H](C)NC(=O)NC[C@@H]1CSCCCCCCSC[C@H](NC(=O)[C@H](Cc2ccccc2)NC(=O)[C@H](CO)NC(=O)[C@@H](N)[C@@H](C)O)C(=O)N[C@@H](CCC(=O)O)C(=O)N[C@@H](Cc2ccc(O)cc2)C(=O)N[C@@H](Cc2c[nH]c3ccccc23)C(=O)N1 (H-TSFCEYW; linker 4-C via X1) | 127 µM | 0.0193 µM | 52% | 97% | Activity [8]: inactive; Activity [10]: inactive; Activity [9]: inactive
CC(C)[C@@H](CNC(N)=O)NC(=O)NC[C@H](C)NC(=O)NC[C@@H]1CSCC(=O)NCCNC(=O)CSC[C@H](NC(=O)[C@H](Cc2ccccc2)NC(=O)[C@H](CO)NC(=O)[C@@H](N)[C@@H](C)O)C(=O)N[C@@H](CCC(=O)O)C(=O)N[C@@H](Cc2ccc(O)cc2)C(=O)N[C@@H](Cc2c[nH]c3ccccc23)C(=O)N1 (H-TSFCEYW; linker 4-C via X2) | 28 µM | 0.0101 µM | 91% | 99% | Activity [10]: inactive
CC(C)[C@@H](CNC(N)=O)NC(=O)NC[C@H](C)NC(=O)NC[C@@H]1CSCCCSC[C@H](NC(=O)[C@H](Cc2ccccc2)NC(=O)[C@H](CO)NC(=O)[C@@H](N)[C@@H](C)O)C(=O)N[C@@H](CCC(=O)O)C(=O)N[C@@H](Cc2ccc(O)cc2)C(=O)N[C@@H](Cc2c[nH]c3ccccc23)C(=O)N1 (H-TSFCEYW; linker 4-C via X5) | 108 µM | 0.0256 µM | 50% | 86% | 
CC(C)[C@@H](CNC(N)=O)NC(=O)NC[C@H](C)NC(=O)NC[C@H](C)NC(=O)[C@H](Cc1c[nH]c2ccccc12)NC(=O)[C@H](Cc1ccc(O)cc1)NC(=O)[C@H](CCC(=O)O)NC(=O)[C@H](C)NC(=O)[C@H](Cc1ccccc1)NC(=O)[C@@H](NC(=O)[C@H](CCCCN)NC(=O)CCC(=O)NCCOCCOCCCCCCCl)[C@@H](C)O ({NH(CH2CH2O)2(CH2)6Cl-Suc}-KTFAEYW-X3) |  |  |  |  | EC50 [11]: 1.95 µM
CC(C)[C@@H](CNC(N)=O)NC(=O)NC[C@H](C)NC(=O)NC[C@@H]1CSCCCCCCSC[C@H](NC(=O)[C@H](Cc2ccccc2)NC(=O)[C@@H](NC(=O)[C@H](CCCCN)NC(=O)CCC(=O)NCCOCCOCCCCCCCl)[C@@H](C)O)C(=O)N[C@@H](CCC(=O)O)C(=O)N[C@@H](Cc2ccc(O)cc2)C(=O)N[C@@H](Cc2c[nH]c3ccccc23)C(=O)N1 ({NH(CH2CH2O)2(CH2)6Cl-Suc}-KTFCEYW; linker 4-C via X1) |  |  |  |  | EC50 [11]: 0.51 µM
CC(C)[C@@H](CNC(N)=O)NC(=O)NC[C@H](C)NC(=O)NC[C@@H]1CSCCCCCCSC[C@H](NC(=O)[C@H](Cc2ccccc2)NC(=O)[C@H](CO)NC(=O)[C@H](CCCCN)NC(=O)[C@H](CCCNC(=N)N)NC(=O)[C@H](CCCNC(=N)N)NC(=O)[C@H](CCCNC(=N)N)NC(=O)CCC(=O)NCCOCCOCCCCCCCl)C(=O)N[C@@H](CCC(=O)O)C(=O)N[C@@H](Cc2ccc(O)cc2)C(=O)N[C@@H](Cc2c[nH]c3ccccc23)C(=O)N1 ({NH(CH2CH2O)2(CH2)6Cl-Suc}-RRRKSFCEYW; linker 7-C via X1) |  |  |  |  | EC50 [11]: 1.9 µM
CC(C)[C@@H](CNC(N)=O)NC(=O)NC[C@H](C)NC(=O)NC[C@@H]1CSCC(=O)NCCNC(=O)CSC[C@H](NC(=O)[C@H](Cc2ccccc2)NC(=O)[C@H](CO)NC(=O)[C@H](CCCCN)NC(=O)[C@H](CCCNC(=N)N)NC(=O)[C@H](CCCNC(=N)N)NC(=O)[C@H](CCCNC(=N)N)NC(=O)CCC(=O)NCCOCCOCCCCCCCl)C(=O)N[C@@H](CCC(=O)O)C(=O)N[C@@H](Cc2ccc(O)cc2)C(=O)N[C@@H](Cc2c[nH]c3ccccc23)C(=O)N1 ({NH(CH2CH2O)2(CH2)6Cl-Suc}-RRRKSFCEYW; linker 7-C via X2) |  |  |  |  | EC50 [11]: 3.3 µM
N[C@@H](Cc1c[nH]c2ccccc12)C(=O)O [TRYPTOPHAN] |  |  |  |  | EC50 [11]: 0.087 µM
